Experimental data as given in ChEMBL document CHEMBL5385845, “Novel coumarin aminophosphonates as potential multitargeting antibacterial agents against Staphylococcus aureus” (Eur J Med Chem, 2023).
≈ marks a conversion by molar mass, not a printed value. Calls of active or inactive are those of the source. The calls are words filed in the database; no cut-off is given here.

What was measured:
Enterococcus faecalis = assay: Antibacterial activity against Enterococcus faecalis assessed as inhibition of bacterial growth; assay type: functional
Pseudomonas aeruginosa [1] = assay: Antibacterial activity against Pseudomonas aeruginosa ATCC 27853 assessed as inhibition of bacterial growth; assay type: functional
Staphylococcus aureus [2] = assay: Antibacterial activity against methicillin resistant Staphylococcus aureus N315 assessed as inhibition of bacterial growth; assay type: functional
Escherichia coli [3] = assay: Synergistic antibacterial activity against Escherichia coli ATCC 25922 assessed as inhibition of bacterial growth in presence of compound 6f; assay type: functional
Escherichia coli [4] = assay: Antibacterial activity against Escherichia coli assessed as inhibition of bacterial growth; assay type: functional
Staphylococcus aureus [5] = assay: Induction of drug resistance in Staphylococcus aureus assessed as fold increase in MIC measured for 23 passages; assay type: functional
Pseudomonas aeruginosa [6] = assay: Antibacterial activity against Pseudomonas aeruginosa assessed as inhibition of bacterial growth; assay type: functional
Staphylococcus aureus [7] = assay: Synergistic antibacterial activity against Staphylococcus aureus assessed as inhibition of bacterial growth in presence of compound 6f; assay type: functional
Acinetobacter baumannii = assay: Antibacterial activity against Acinetobacter baumannii assessed as inhibition of bacterial growth; assay type: functional
Staphylococcus aureus [8] = assay: Antibacterial activity against Staphylococcus aureus ATCC 25923 assessed as inhibition of bacterial growth; assay type: functional
Staphylococcus aureus [9] = assay: Antibacterial activity against Staphylococcus aureus assessed as inhibition of bacterial growth; assay type: functional
Klebsiella pneumoniae = assay: Antibacterial activity against Klebsiella pneumoniae assessed as inhibition of bacterial growth; assay type: functional
Staphylococcus aureus [10] = assay: Antibacterial activity against Staphylococcus aureus ATCC 29213 assessed as inhibition of bacterial growth; assay type: functional
Escherichia coli [11] = assay: Antibacterial activity against Escherichia coli ATCC 25922 assessed as inhibition of bacterial growth; assay type: functional
Calf thymus DNA [12] = assay: Binding affinity to calf thymus DNA by acridine orange staining based competitive binding assay; assay type: nucleic-acid assay; details: Bos taurus
Staphylococcus aureus [13] = assay: Antibacterial activity against Staphylococcus aureus assessed as effect on lipid peroxidation production at 1 to 5 times MIC incubated for 5 to 20 mins; assay type: functional, organism-based; details: time 5-20 min
Escherichia coli [14] = assay: Synergistic antibacterial activity against Escherichia coli ATCC 25922 assessed as inhibition of bacterial growth in presence of norfloxacin; assay type: functional
Staphylococcus aureus [15] = assay: Induction of oxidative stress in Staphylococcus aureus assessed as decrease in GSH activity at 8 times MIC relative to control; assay type: functional; set-up: scale not given: the % may be the effect or the level left
Staphylococcus aureus [16] = assay: Induction of drug resistance in Staphylococcus aureus assessed as increase in MIC measured for 16 passages; assay type: functional
Staphylococcus aureus [17] = assay: Synergistic antibacterial activity against Staphylococcus aureus assessed as fractional inhibitory concentration index in presence of norfloxacin; assay type: functional
Cell membrane [18] = assay: Induction of cell membrane depolarization in Staphylococcus aureus assessed as increase in fluorescence intensity by DiSC3(5) dye-based fluorescence assay
Cell membrane [19] = assay: Induction of cell membrane permeabilization in Staphylococcus aureus by propidium iodide dye-based fluorescence assay
Escherichia coli [20] = assay: Synergistic antibacterial activity against Escherichia coli ATCC 25922 assessed as fractional inhibitory concentration index in presence of norfloxacin; assay type: functional
Staphylococcus aureus [21] = assay: Antibacterial activity against Staphylococcus aureus assessed as reduction in bacterial biofilm formation at 16 x MIC relative to control; assay type: functional; set-up: scale not given: the % may be the effect or the level left
Staphylococcus aureus [22] = assay: Antibacterial activity against Staphylococcus aureus assessed as fold increase in intracellular ROS production at 8 times MIC by DCFH-DA dye based fluorometric assay relative to control; assay type: functional
[23] = Hemolytic activity in RBC (unknown origin) assessed as hemolysis at 256 ug/ml incubated for 6 hrs relative to control; assay type: toxicity, cell-based, Erythrocyte; details: red blood cells (erythrocytes), at 256 µg/mL, read-out: Activity
Staphylococcus aureus [24] = assay: Antibacterial activity against Staphylococcus aureus assessed as inhibition of bacterial growth at 0.5 times MIC incubated for 4 hrs; assay type: functional, organism-based
Staphylococcus aureus [25] = assay: Synergistic antibacterial activity against Staphylococcus aureus assessed as inhibition of bacterial growth in presence of norfloxacin; assay type: functional
Staphylococcus aureus [26] = assay: Antibacterial activity against Staphylococcus aureus assessed as fold increase in RNS production at 8 times MIC by griess reagent-based analysis; assay type: functional
Staphylococcus aureus [27] = assay: Antibacterial activity against Staphylococcus aureus assessed as reduction in bacterial biofilm formation; assay type: functional, organism-based
Staphylococcus aureus [28] = assay: Antibacterial activity against Staphylococcus aureus assessed as inhibition of bacterial growth at 1 to 4 times MIC incubated for 4 hrs; assay type: functional, organism-based
Staphylococcus aureus [29] = assay: Antibacterial activity against Staphylococcus aureus assessed as fold increase in malondialdehyde level at 1 to 5 times MIC; assay type: functional
Staphylococcus aureus [30] = assay: Antibacterial activity against Staphylococcus aureus assessed as reduction in cellular metabolic activity by resazurin staining based assay; assay type: functional, organism-based
Cell membrane [31] = assay: Induction of cytoplasmic membrane depolarization in Staphylococcus aureus assessed as increase in fluorescence intensity measured at 10 mins by DiSC3(5) dye-based fluorescence assay; assay type: subcellular
Cell membrane [32] = assay: Induction of cell membrane permeabilization in Staphylococcus aureus by calcein-AM dye-based fluorescence assay; assay type: subcellular
Calf thymus DNA [33] = assay: Binding affinity to calf thymus DNA assessed as intercalation by measuring hypochromic shift by UV-Vis spectroscopic analysis; assay type: nucleic-acid assay; details: Bos taurus
Cell membrane [34] = assay: Disruption of cell membrane integrity in Staphylococcus aureus assessed as increase in protein leakage
Staphylococcus aureus [35] = assay: Antibacterial activity against Staphylococcus aureus assessed as increase in RNS production by griess reagent-based analysis; assay type: functional, organism-based
Cell membrane [36] = assay: Disruption of cell membrane integrity in Staphylococcus aureus assessed as cell membrane damage by scanning electron microscopic analysis; assay type: subcellular
Calf thymus DNA [37] = assay: Binding affinity to calf thymus DNA by DAPI staining based competitive binding assay; assay type: nucleic-acid assay; details: Bos taurus

## CCn1cc(C(=O)O)c(=O)c2cc(F)c(N3CCNCC3)cc21 [NORFLOXACIN]
Enterococcus faecalis
  MIC: 8 µg/mL (≈ 25.1 µM)
Pseudomonas aeruginosa [1]
  MIC: 4 µg/mL (≈ 12.5 µM)
Staphylococcus aureus [2]
  MIC: 4 µg/mL (≈ 12.5 µM)
Escherichia coli [3]
  MIC: 8 µg/mL
Escherichia coli [4]
  MIC: 8 µg/mL (≈ 25.1 µM)
Staphylococcus aureus [5]
  fold change (FC): 32
Pseudomonas aeruginosa [6]
  MIC: 4 µg/mL (≈ 12.5 µM)
Staphylococcus aureus [7]
  MIC: 4 µg/mL
Acinetobacter baumannii
  MIC: 8 µg/mL (≈ 25.1 µM)
Staphylococcus aureus [8]
  MIC: 8 µg/mL (≈ 25.1 µM)
Staphylococcus aureus [9]
  MIC: 16 µg/mL (≈ 50.1 µM)
Klebsiella pneumoniae
  MIC: 1 µg/mL (≈ 3.13 µM)
Staphylococcus aureus [10]
  MIC: 16 µg/mL (≈ 50.1 µM)
Escherichia coli [11]
  MIC: 16 µg/mL (≈ 50.1 µM)

## CCOP(=O)(OCC)C(Nc1ccc2c(C)cc(=O)oc2c1)c1cccc(O)c1 (configuration not stated)
Calf thymus DNA [12]
  Activity: Active
Staphylococcus aureus [13]
  Activity: inactive
Escherichia coli [14]
  MIC: 1 µg/mL
Enterococcus faecalis
  MIC: 16 µg/mL (≈ 38.3 µM)
Staphylococcus aureus [15]
  Activity: 16%
Staphylococcus aureus [16]
  Activity: inactive
Staphylococcus aureus [17]
  fractional inhibitory concentration index (FICI): 0.25
Pseudomonas aeruginosa [1]
  MIC: 64 µg/mL (≈ 153 µM)
Cell membrane [18]
  Activity: Dose-Dependent Effect
Staphylococcus aureus [2]
  MIC: 32 µg/mL (≈ 76.7 µM)
Cell membrane [19]
  Activity: Dose-Dependent Effect
Escherichia coli [20]
  fractional inhibitory concentration index (FICI): 0.75
Staphylococcus aureus [21]
  Activity: 30%
Staphylococcus aureus [22]
  fold change (FC): 3.7
[23]
  hemolysis at 6 h, 256 ug/ml: < 4%
Staphylococcus aureus [24]
  Activity: Active
Escherichia coli [4]
  MIC: 64 µg/mL (≈ 153 µM)
Staphylococcus aureus [25]
  MIC: 0.063 µg/mL
Staphylococcus aureus [26]
  fold change (FC): 2.2
Staphylococcus aureus [27]
  Activity: Dose-Dependent Effect
Staphylococcus aureus [28]
  Activity: Active
Pseudomonas aeruginosa [6]
  MIC: 16 µg/mL (≈ 38.3 µM)
Acinetobacter baumannii
  MIC: 16 µg/mL (≈ 38.3 µM)
Staphylococcus aureus [8]
  MIC: 8 µg/mL (≈ 19.2 µM)
Staphylococcus aureus [29]
  fold change (FC): 2
Staphylococcus aureus [30]
  Activity: Dose-Dependent Effect
Cell membrane [31]
  Activity: Active
Cell membrane [32]
  Activity: Dose-Dependent Effect
Calf thymus DNA [33]
  Activity: Dose-Dependent Effect
Cell membrane [34]
  Activity: Dose-Dependent Effect
Staphylococcus aureus [35]
  Activity: Dose-Dependent Effect
Staphylococcus aureus [9]
  MIC: 0.5 µg/mL (≈ 1.2 µM)
Cell membrane [36]
  Activity: Active
Klebsiella pneumoniae
  MIC: 64 µg/mL (≈ 153 µM)
Calf thymus DNA [37]
  Activity: Active
Staphylococcus aureus [10]
  MIC: 16 µg/mL (≈ 38.3 µM)
Escherichia coli [11]
  MIC: 4 µg/mL (≈ 9.58 µM)

## CCOP(=O)(OCC)C(Nc1ccc2c(CCl)cc(=O)oc2c1)c1cccc(O)c1 (configuration not stated)
Enterococcus faecalis
  MIC: 32 µg/mL (≈ 70.8 µM)
Pseudomonas aeruginosa [1]
  MIC: 32 µg/mL (≈ 70.8 µM)
Staphylococcus aureus [2]
  MIC: 64 µg/mL (≈ 142 µM)
Escherichia coli [4]
  MIC: 64 µg/mL (≈ 142 µM)
Pseudomonas aeruginosa [6]
  MIC: 128 µg/mL (≈ 283 µM)
Acinetobacter baumannii
  MIC: 64 µg/mL (≈ 142 µM)
Staphylococcus aureus [8]
  MIC: 16 µg/mL (≈ 35.4 µM)
Staphylococcus aureus [9]
  MIC: 16 µg/mL (≈ 35.4 µM)
Klebsiella pneumoniae
  MIC: 128 µg/mL (≈ 283 µM)
Staphylococcus aureus [10]
  MIC: 64 µg/mL (≈ 142 µM)
Escherichia coli [11]
  MIC: 8 µg/mL (≈ 17.7 µM)
